Data: patent US11242354B2, “4-sulfur substituted podophyllotoxin derivative and preparation method therefor and use thereof” (priority 2017, dated 2022)
Like-named read-outs stand apart in the source and are kept apart here.

Tests used:
HepG2 = assay: MTT test for inhibition of tumor cells, HepG2; format: cell-based; settings: 48 h
Experimental: (§1) HepG2, HeLa cell lines and human normal liver cells HL-7702 in a logarithmic growth period were centrifuged at 1000 rpm for 5 min, and the supernatant was discarded, the cells were suspended with a suitable amount of culture medium to adjust the cell concentration to 3.5×10^4/well, the cells were seeded in 96-well plates, and the following experimental groups were set:
(§2) 100 μl of DMSO was added to each well, followed by shaking on a shaker for 30 min at 37° C., the absorbance (OD) was measured at 492 nm, and the MTT ratio was calculated as the OD value of drug group/OD value of negative control group.

HeLa = assay: MTT test for inhibition of tumor cells, HeLa; format: cell-based; settings: 48 h
Experimental: as §1, §2

[1] = system: human normal hepatocytes HL-7702; assay: MTT test on human normal hepatocytes HL-7702; settings: read-out: IC50 HL-7702
Experimental: as §1, §2

[2] = system: human lung cancer cell A549; assay: Activity on tumor cell A549; format: cell-based; settings: vs etoposide
breast cancer cell MCF7 = assay: Activity on tumor cell MCF7; format: cell-based, human; settings: for antitumor activity on MCF7 compared with etoposide: vs etoposide
[3] = system: human normal hepatocytes HL-7702
Experimental: as §1, §2

[4] = system: human cervical immortalized cells H8; assay: Toxicity on normal cell line H8; format: cell-based
[5] = system: human embryonic lung cells MRC-5; assay: Toxicity on normal cell line MRC-5; format: cell-based; settings: MRC5
[6] = system: human mammary epithelial cells HMEC; assay: Toxicity on normal cell line HMEC; format: cell-based
[7] = human normal hepatocytes HL-7702, MTT, 48 h

| Compound | IC50 (HepG2) [µM] | IC50 (HeLa) [µM] | IC50 [1, 7] [µM] | further results |
| --- | --- | --- | --- | --- |
| 4β-S-(3-phenyl-1,3,4-thiadiazol-2(3H)thione potassium salt-5)-4demethylepipodophyllotoxin [Compound 26] | 5.7 ± 0.33 | 48.49 ± 0.38 |  |  |
| 4β-S-(3-phenyl-1,3,4-thiadiazol-2(3H)thione potassium salt-5)-podophyllotoxin [Compound 25] | 2.2 ± 0.28 | 31.9 ± 0.42 |  |  |
| 4β-S-(5-phenylbenzoxazol-2)-4demethylepipodophyllotoxin [Compound 12] | 10.2 ± 0.46 | > 100 | 56.8 ± 1.32 |  |
| 4β-S-(5-phenylbenzoxazol-2)-podophyllotoxin [Compound 11] | 5.25 ± 0.13 | > 100 | 70.7 ± 1.65 |  |
| 4β-S-(6-chlorobenzoxazol-2)-4demethylepipodophyllotoxin [Compound 16] | 22.3 ± 1.46 | 32.3 ± 1.87 | 68.3 ± 4.5 |  |
| 4β-S-(6-chlorobenzoxazol-2)-podophyllotoxin [Compound 15] | 5.23 ± 0.35 | 7.23 ± 0.44 | 43.3 ± 3.5 |  |
| COc1cc(C2c3cc4c(cc3C(Sc3cc(C(F)(F)F)ccn3)C3COC(=O)C23)OCO4)cc(OC)c1OC (stereo not drawn) [Compound 1, 4-β-S-(4-trifluoromethylpyridin-2)-podophyllotoxin] | 2.04 ± 0.3 | 1.86 ± 0.2 | 57 ± 1.1 |  |
| COc1cc(C2c3cc4c(cc3C(Sc3cc(C(F)(F)F)ccn3)C3COC(=O)C23)OCO4)cc(OC)c1O (stereo not drawn) [Compound 2, 4-β-S-(4-trifluoromethylpyridin-2)-4demethylepipodophyllotoxin] | 4.5 ± 0.45 | 4.58 ± 0.13 | 42.3 ± 1.52 |  |
| COc1cc(C2c3cc4c(cc3C(Sc3nccc(C(F)(F)F)n3)C3COC(=O)C23)OCO4)cc(OC)c1OC (stereo not drawn) [Compound 3, 4-β-S-(4-trifluoromethylpyrimidin-2)-podophyllotoxin] | 5.05 ± 0.78 | 10.1 ± 0.22 | 69.8 ± 1.23 |  |
| COc1cc(C2c3cc4c(cc3C(Sc3nccc(C(F)(F)F)n3)C3COC(=O)C23)OCO4)cc(OC)c1O (stereo not drawn) [Compound 4, 4-β-S-(4-trifluoromethylpyrimidin-2)-4demethylepipodophyllotoxin] | 7.37 ± 0.32 | 39.36 ± 0.35 | 54.9 ± 0.98 |  |
| COc1cc(C2c3cc4c(cc3C(Sc3ccc(F)cc3)C3COC(=O)C23)OCO4)cc(OC)c1OC (stereo not drawn) [Compound 5, 4β-S-(4-fluorobenzene-1)-podophyllotoxin] | 2.28 ± 0.1 | 9.5 ± 0.43 | 44.5 ± 1 |  |
| COc1cc(C2c3cc4c(cc3C(Sc3nc5cc(F)ccc5s3)C3COC(=O)C23)OCO4)cc(OC)c1OC (stereo not drawn) [Compound 7, 4β-S-(5-fluorobenzothiazol-2)-podophyllotoxin] | 1 ± 0.06 | 1.47 ± 0.32 | 97 ± 2.1 |  |
| COc1cc([C@@H]2c3cc4c(cc3[C@@H](Sc3nc5cc(F)ccc5s3)[C@H]3COC(=O)[C@H]23)OCO4)cc(OC)c1O [Compound 8, 4β-S-(5-fluorobenzothiazol-2)-4demethylepipodophyllotoxin] |  |  |  | antitumor activity on A549 compared with etoposide [2]: significantly improved; antitumor activity on MCF7 compared with etoposide (breast cancer cell MCF7): significantly improved; toxicity on HL-7702 cell line compared with control compounds [3]: significantly lower |
| COc1cc(C2c3cc4c(cc3C(Sc3nc5cc(F)ccc5o3)C3COC(=O)C23)OCO4)cc(OC)c1OC (stereo not drawn) [Compound 9, 4β-S-(5-fluorobenzoxazol-2)-podophyllotoxin] | 0.89 ± 0.07 |  | > 1000 |  |
| COc1cc([C@@H]2c3cc4c(cc3[C@@H](Sc3nc5cc(F)ccc5o3)[C@H]3COC(=O)[C@H]23)OCO4)cc(OC)c1O [Compound 10, 4β-S -(5-fluorobenzoxazol-2)-4demethylepipodophyllotoxin] |  |  |  | antitumor activity on A549 compared with etoposide [2]: significantly improved; antitumor activity on MCF7 compared with etoposide (breast cancer cell MCF7): significantly improved; toxicity on HL-7702 cell line compared with control compounds [3]: significantly lower |
| COc1cc(C2c3cc4c(cc3C(Sc3nc5cc(C)ccc5o3)C3COC(=O)C23)OCO4)cc(OC)c1OC (stereo not drawn) [Compound 13, 4β-S-(5-methylbenzoxazol-2)-podophyllotoxin] | 7.31 ± 0.4 | 9.31 ± 0.6 | 60.1 ± 1.6 |  |
| COc1cc(C2c3cc4c(cc3C(Sc3nc5cc(C)ccc5o3)C3COC(=O)C23)OCO4)cc(OC)c1O (stereo not drawn) [Compound 14, 4β-S-(5-methylbenzoxazol-2)-4demethylepipodophyllotoxin] | 7.94 ± 0.21 | 11.9 ± 0.99 | 78.7 ± 2.5 |  |
| COc1cc(C2c3cc4c(cc3C(Sc3nc5cc(OC(F)F)ccc5[nH]3)C3COC(=O)C23)OCO4)cc(OC)c1OC (stereo not drawn) [Compound 17, 4β-S-(5-difluoromethoxybenzimidazol-2)-podophyllotoxin] | 0.92 ± 0.05 | 1.15 ± 0.16 | 8.15 ± 0.87 |  |
| COc1cc(C2c3cc4c(cc3C(Sc3nc5cc(OC(F)F)ccc5[nH]3)C3COC(=O)C23)OCO4)cc(OC)c1O (stereo not drawn) [Compound 18, 4β-S-(5-difluoromethoxybenzimidazol-2)-4demethylepipodophyllotoxin] | 2.09 ± 0.17 | 7.6 ± 0.51 | 11.3 ± 1.87 |  |
| COc1cc(C2c3cc4c(cc3C(Sc3ccc5ccccc5c3)C3COC(=O)C23)OCO4)cc(OC)c1OC (stereo not drawn) [Compound 19, 4β-S-(naphthalen-2)-podophyllotoxin] | 3.06 ± 0.11 | 3.91 ± 0.42 | 90.9 ± 3.49 |  |
| COc1cc(C2c3cc4c(cc3C(Sc3nc5ncccc5[nH]3)C3COC(=O)C23)OCO4)cc(OC)c1OC (stereo not drawn) [Compound 21, 4β-S-(1H-imidazo [4,5-B]pyridin-2)-podophyllotoxin] | 4.23 ± 0.36 | 64.23 ± 0.45 | 56.6 ± 2.34 |  |
| COc1cc(C2c3cc4c(cc3C(Sc3nnnn3-c3ccccc3)C3COC(=O)C23)OCO4)cc(OC)c1OC (stereo not drawn) [Compound 23, 4β-S-(1-phenyltetrazol-5)-podophyllotoxin] | 6.17 ± 0.27 | 15.8 ± 0.56 | 87.1 ± 4.2 |  |
| COc1cc([C@@H]2c3cc4c(cc3[C@@H](Sc3nc(-c5ccncc5)cs3)[C@H]3COC(=O)[C@H]23)OCO4)cc(OC)c1OC [Compound 27, 4β-S-(4-(4-pyridyl)thiazol-2)-podophyllotoxin] | 0.89 ± 0.19 | 1.95 ± 0.36 | 71.4 ± 2.71 |  |
| COc1cc([C@@H]2c3cc4c(cc3[C@@H](Sc3nc(-c5ccncc5)cs3)[C@H]3COC(=O)[C@H]23)OCO4)cc(OC)c1O [Compound 28, 4β-S-(4-(4-pyridyl)thiazol-2)-4demethylepipodophyllotoxin] | 29.2 ± 1.34 | 24.1 ± 1.29 | 60.1 ± 2.88 |  |
| COc1cc([C@@H]2c3cc4c(cc3[C@@H](O[C@@H]3O[C@@H]5CO[C@@H](C)O[C@H]5[C@H](O)[C@H]3O)[C@H]3COC(=O)[C@H]23)OCO4)cc(OC)c1O [Etoposide, etoposide, reference compound] |  |  |  | IC50 (HepG2; Homo sapiens): 20.7 ± 1.7 µM; IC50 (HeLa; Homo sapiens): 25.4 ± 2.9 µM; IC50 [4]: 80.1 ± 1.35 µM; IC50 [5]: 30.3 ± 1.21 µM; IC50 (breast cancer cell MCF7; Homo sapiens, tumor cell line MCF7): 56.8 ± 1.22 µM; IC50 [6]: 23.2 ± 1.34 µM; IC50 ([1]; Homo sapiens, L02, 48 h): 28.8 ± 3.4 µM |
| COc1cc([C@@H]2c3cc4c(cc3[C@H](O)[C@H]3COC(=O)[C@H]23)OCO4)cc(OC)c1OC [Podophyllotoxin, podophyllotoxin] |  |  |  | IC50 (HepG2; Homo sapiens): 55.53 ± 0.24 µM; IC50 (HeLa; Homo sapiens): 75.81 ± 0.73 µM; IC50 ([1]; Homo sapiens, L02, 48 h): 67.18 ± 0.24 µM |
